From paper PMC5548701, “Selective targeting of melanoma using N-(2-diethylaminoethyl) 4-[^18F]fluoroethoxy benzamide (4-[^18F]FEBZA): a novel PET imaging probe” (EJNMMI Research, 2017)
pIC50: −log10 of the molar value. Values joined by “and” are separate entries in the source; they are usually repeats but may differ in a detail not shown here. Equal values may be shown once. Read-outs that look alike come from different tables or passages of the source.

Legend:
B16F1 cells [1] = test: homologous competitive binding assay on fixed B16F1 cells; parameters: species or system murine; conditions: homologous competition with unlabeled 4-FEBZA, 1 h
Protocol: After adding 0.1 nmol of 4-[^18F]FEBZA/well as the radioligand, unlabeled 4-FEBZA (2) was added to the quadruplicate sets of wells in concentrations ranging from 10^−11 to 10^−4 M and the plates were incubated for an hour at 37 °C under 5% CO2. At the end of the incubation, the media were removed, and the cells were washed with 500 μL of ice-cold media. The cells were lysed using 1 mL of phosphate-buffered saline containing 10% Triton X-100, and the lysates were collected in culture tubes to measure the radioactivity contents using a γ-counter. We performed a non-linear regression analysis of the decay-corrected CPM values to calculate the inhibition constant value (IC50), the concentration of competitor required to inhibit 50% of radiotracer binding, utilizing the GraphPad Prism software program (GraphPad Software, Inc., CA).

B16F1 cells [2] = test: internalization assay (acid wash); assay type: cell-based, murine; conditions: 37 °C
Protocol: Next, we evaluated the binding characteristics of 4-[^18F]FEBZA to B16F1 cells through internalization experiments. The cells were treated with a low pH buffer to sequester membrane-bound radioactivity (acid wash-releasable) from the internalized (acid wash-resistant) fraction. For this assay, 4-[^18F]FEBZA was added to 12-well plates with each well containing 4 × 10^5 B16F1cells/well (in quadruplicate), and the plates were incubated at 37 °C for 15, 30, 60, 120, and 180 min. After the incubation, the media were removed, each well was washed with ice-cold PBS (2 × 1 mL), and the washes were collected in the tubes. Subsequently, each well was gently treated with 1 mL of an ice-cold mildly acidic medium (sodium acetate buffer, pH 4.5) to remove surface-bound radioactivity, and the rinses were collected in tubes (acidic wash). The adherent cells were then lysed using 500 μL of 10% Triton X-100 in PBS, and the lysate was transferred into tubes. The total radioactivity in each of the lysate, acidic wash, and the PBS wash was measured using a γ-counter.

[3] = test system: B16F1 melanoma tumor xenografts; test: biodistribution in mice bearing B16F1 tumor xenografts; assay type: in vivo, C57BL/6 mice; conditions: for tumor-to-brain tissue ratio: B16F1 group; for Adrenals %IA/g tissue (mean ± SD) / Blood %IA/g tissue (mean ± SD) / Bone %IA/g tissue (mean ± SD) / Brain %IA/g tissue (mean ± SD) / Heart %IA/g tissue (mean ± SD) / Kidneys %IA/g tissue (mean ± SD) / Liver %IA/g tissue (mean ± SD) / Lung %IA/g tissue (mean ± SD) / Muscles %IA/g tissue (mean ± SD) / Pancreas %IA/g tissue (mean ± SD) / Sm. Intestine %IA/g tissue (mean ± SD) / Spleen %IA/g tissue (mean ± SD): B16F1 tumor mice; for Tumor %IA/g tissue (mean ± SD): B16F1 tumor
Protocol: (§1) B16F1 melanoma cells, HT-29 human colorectal adenocarcinoma cells, and C-32 amelanotic melanoma cells were purchased from the American Type Culture Collection (ATCC, Rockville, MD). B16F1 murine melanotic melanoma cells were maintained in Dulbecco’s modified Eagles medium supplemented with 10% fetal calf-serum, 2 mM L-glutamine, and 1 mM pyruvate. HT-29 and C-32 cells were maintained in RPMI supplemented with 10% fetal calf serum and 2 mM L-glutamine. C57BL/6 and athymic nu/nu mice were purchased from Charles River Laboratories (Charles River Laboratories, Boston, MA). All animal studies were performed using an IACUC-approved protocol, and the work was performed under the guidelines established by Wake Forest University. The cells were grown to confluency, harvested, washed with phosphate-buffered saline and then were suspended in a 1:1 mixture of phosphate-buffered saline and Matrigel (BD Life Sciences, San Jose, CA) at a concentration of 5 × 10^6 cells/mL. For subcutaneous tumor xenografts, […] in the right flank with 100 μL of a suspension of B16F1 cells, and female athymic nu/nu mice were injected in the right flank with 100 μL of HT-29 cells or C-32 cells.
(§2) The biodistribution studies were performed in mice bearing B16F1 (1 h n = 5; 2 h n = 6), C-32 (1 h n = 3; 2 h n = 3), and HT-29 (1 h n = 3; 2 h n = 3) tumor xenografts. The tumor-bearing mice were injected with ~40 μCi of 4-[^18F]FEBZA. A separate group of normal C57BL/6 mice with no tumor implants (1 h n = 3; 2 h n = 3) was also injected with ~40 μCi of 4-[^18F]FEBZA to study the distribution characteristics of 4-[^18F]FEBZA in the absence of tumors. At 1 h and 2 h post-injection, the mice were euthanized, and the tissues of interest were removed, rinsed with PBS, weighed, and counted for radioactivity contents using a γ-counter.

[4] = test system: C-32 amelanotic melanoma tumor xenografts; test: biodistribution in mice bearing C-32 tumor xenografts; assay type: in vivo, athymic nu/nu mice; conditions: for Adrenals %IA/g tissue (mean ± SD) / Blood %IA/g tissue (mean ± SD) / Bone %IA/g tissue (mean ± SD) / Brain %IA/g tissue (mean ± SD) / Heart %IA/g tissue (mean ± SD) / Kidneys %IA/g tissue (mean ± SD) / Liver %IA/g tissue (mean ± SD) / Lung %IA/g tissue (mean ± SD) / Muscles %IA/g tissue (mean ± SD) / Pancreas %IA/g tissue (mean ± SD) / Sm. Intestine %IA/g tissue (mean ± SD) / Spleen %IA/g tissue (mean ± SD): C-32 tumor mice; for Tumor %IA/g tissue (mean ± SD): C-32 tumor
Protocol: as §1, §2

[5] = biodistribution in normal mice with no tumor implants; assay type: in vivo, C57BL/6 mice; conditions: 1 h
Protocol: as §2

pIC50 (B16F1 cells [1]; read-out: IC50, first of two distinct binding sites): 8.74 | pIC50 (B16F1 cells [1]; read-out: IC50, second of two distinct binding sites): 5.89 | tumor-to-brain tissue ratio ([3]; 1 h): 3.55 ± 0.80 | tumor-to-brain tissue ratio ([3]; 2 h): 3.45 ± 0.81 | tumor-to-muscle ratio ([3]; B16F1 mice group, 2 h): 6.64 ± 1.11 | Adrenals %IA/g tissue (mean ± SD) ([3]; 1 h post-injection): 1.10 ± 0.36 %IA/g tissue | Blood %IA/g tissue (mean ± SD) ([3]; 1 h post-injection): 3.06 ± 0.52 %IA/g tissue | Bone %IA/g tissue (mean ± SD) ([3]; 1 h post-injection): 3.78 ± 0.45 %IA/g tissue | Brain %IA/g tissue (mean ± SD) ([3]; 1 h post-injection): 2.55 ± 0.61 %IA/g tissue | Heart %IA/g tissue (mean ± SD) ([3]; 1 h post-injection): 2.82 ± 0.25 %IA/g tissue | Kidneys %IA/g tissue (mean ± SD) ([3]; 1 h post-injection): 3.10 ± 0.28 %IA/g tissue | Liver %IA/g tissue (mean ± SD) ([3]; 1 h post-injection): 3.25 ± 0.34 %IA/g tissue | Lung %IA/g tissue (mean ± SD) ([3]; 1 h post-injection): 2.12 ± 0.17 %IA/g tissue | Muscles %IA/g tissue (mean ± SD) ([3]; 1 h post-injection): 1.51 ± 0.21 %IA/g tissue | Pancreas %IA/g tissue (mean ± SD) ([3]; 1 h post-injection): 2.48 ± 0.35 %IA/g tissue | Spleen %IA/g tissue (mean ± SD) ([3]; 1 h post-injection): 2.24 ± 0.36 %IA/g tissue | Adrenals %IA/g tissue (mean ± SD) ([3]; 2 h post-injection): 0.88 ± 0.06 %IA/g tissue | Blood %IA/g tissue (mean ± SD) ([3]; 2 h post-injection): 2.51 ± 0.93 %IA/g tissue | Bone %IA/g tissue (mean ± SD) ([3]; 2 h post-injection): 5.45 ± 0.98 %IA/g tissue | Brain %IA/g tissue (mean ± SD) ([3]; 2 h post-injection): 2.25 ± 0.50 %IA/g tissue | Heart %IA/g tissue (mean ± SD) ([3]; 2 h post-injection): 2.12 ± 0.58 %IA/g tissue | Kidneys %IA/g tissue (mean ± SD) ([3]; 2 h post-injection): 2.20 ± 0.38 %IA/g tissue | Liver %IA/g tissue (mean ± SD) ([3]; 2 h post-injection): 2.28 ± 0.49 %IA/g tissue | Lung %IA/g tissue (mean ± SD) ([3]; 2 h post-injection): 1.49 ± 0.49 %IA/g tissue | Muscles %IA/g tissue (mean ± SD) ([3]; 2 h post-injection): 1.14 ± 0.21 %IA/g tissue | Pancreas %IA/g tissue (mean ± SD) ([3]; 2 h post-injection): 1.73 ± 0.14 %IA/g tissue | Sm. Intestine %IA/g tissue (mean ± SD) ([3]; 2 h post-injection): 1.60 ± 0.31 %IA/g tissue | Spleen %IA/g tissue (mean ± SD) ([3]; 2 h post-injection): 1.58 ± 0.18 %IA/g tissue | Tumor %IA/g tissue (mean ± SD) ([3]; 1 h post-injection): 8.66 ± 1.02 %IA/g tissue | Tumor %IA/g tissue (mean ± SD) ([3]; 2 h post-injection): 7.47 ± 1.34 %IA/g tissue | tumor-to-muscle ratio ([4]; C-32 mice group, 2 h): 2.43 ± 0.14 | Adrenals %IA/g tissue (mean ± SD) ([4]; 1 h post-injection): 1.26 ± 0.39 %IA/g tissue | Blood %IA/g tissue (mean ± SD) ([4]; 1 h post-injection): 3.22 ± 0.64 %IA/g tissue | Bone %IA/g tissue (mean ± SD) ([4]; 1 h post-injection): 3.47 ± 0.78 %IA/g tissue | Brain %IA/g tissue (mean ± SD) ([4]; 1 h post-injection): 1.87 ± 0.21 %IA/g tissue | Heart %IA/g tissue (mean ± SD) ([4]; 1 h post-injection): 2.52 ± 0.15 %IA/g tissue | Kidneys %IA/g tissue (mean ± SD) ([4]; 1 h post-injection): 2.85 ± 0.37 %IA/g tissue | Liver %IA/g tissue (mean ± SD) ([4]; 1 h post-injection): 3.11 ± 0.49 %IA/g tissue | Lung %IA/g tissue (mean ± SD) ([4]; 1 h post-injection): 1.94 ± 0.67 %IA/g tissue | Muscles %IA/g tissue (mean ± SD) ([4]; 1 h post-injection): 2.35 ± 1.06 %IA/g tissue | Pancreas %IA/g tissue (mean ± SD) ([4]; 1 h post-injection): 2.49 ± 0.42 %IA/g tissue | Sm. Intestine %IA/g tissue (mean ± SD) ([4]; 1 h post-injection): 2.23 ± 0.21 %IA/g tissue | Spleen %IA/g tissue (mean ± SD) ([4]; 1 h post-injection): 1.96 ± 0.38 %IA/g tissue | Adrenals %IA/g tissue (mean ± SD) ([4]; 2 h post-injection): 0.77 ± 0.18 %IA/g tissue | Blood %IA/g tissue (mean ± SD) ([4]; 2 h post-injection): 2.40 ± 0.30 %IA/g tissue | Bone %IA/g tissue (mean ± SD) ([4]; 2 h post-injection): 5.09 ± 0.72 %IA/g tissue | Brain %IA/g tissue (mean ± SD) ([4]; 2 h post-injection): 1.36 ± 0.17 %IA/g tissue | Heart %IA/g tissue (mean ± SD) ([4]; 2 h post-injection): 1.75 ± 0.35 %IA/g tissue | Kidneys %IA/g tissue (mean ± SD) ([4]; 2 h post-injection): 1.84 ± 0.12 %IA/g tissue | Liver %IA/g tissue (mean ± SD) ([4]; 2 h post-injection): 1.99 ± 0.12 %IA/g tissue | Lung %IA/g tissue (mean ± SD) ([4]; 2 h post-injection): 1.33 ± 0.35 %IA/g tissue | Muscles %IA/g tissue (mean ± SD) ([4]; 2 h post-injection): 1.05 ± 0.14 %IA/g tissue | Pancreas %IA/g tissue (mean ± SD) ([4]; 2 h post-injection): 1.40 ± 0.10 %IA/g tissue | Sm. Intestine %IA/g tissue (mean ± SD) ([4]; 2 h post-injection): 1.33 ± 0.06 %IA/g tissue | Spleen %IA/g tissue (mean ± SD) ([4]; 2 h post-injection): 1.22 ± 0.08 %IA/g tissue | Tumor %IA/g tissue (mean ± SD) ([4]; 1 h post-injection): 3.91 ± 0.23 %IA/g tissue | Tumor %IA/g tissue (mean ± SD) ([4]; 2 h post-injection): 2.53 ± 0.19 %IA/g tissue | bone uptake ([5]; mice with no tumor): 3.23 ± 0.24 %IA/g | blood uptake ([5]; mice without implanted tumor): 2.81 ± 0.31 %IA/g | brain uptake ([5]; mice without implanted tumor): 2.46 ± 0.41 %IA/g | liver uptake ([5]; mice without implanted tumor): 4.11 ± 0.63 %IA/g | lungs uptake ([5]; mice without implanted tumor): 2.52 ± 0.47 %IA/g | muscle uptake ([5]; mice without implanted tumor): 1.10 ± 0.13 %IA/g
Compound: CCN(CC)CCNC(=O)c1ccc(OCC[18F])cc1 [4-[^18F]FEBZA, N-(2-diethylaminoethyl) 4-[^18F]fluoroethoxybenzamide]
internalized fraction of cell-associated radioactivity (B16F1 cells [2]): Majority of the cell-associated radioactivity is internalized | time at which internalized fraction reached plateau (B16F1 cells [2]): about 120 min | cell surface bound fraction (B16F1 cells [2]; all time points (15-180 min)): < 1% | Sm. Intestine %IA/g tissue (mean ± SD) ([3]; 1 h post-injection): 2.48 ± 0.35 %IA/g tissue and 2.49 ± 0.25 %IA/g tissue
